Read-outs that look alike come from different tables or passages of the source.
Assays:
[1] = 24 h; cited from earlier work
[2] = 4 h; cited from earlier work

CC(C)C[C@H](NC(=O)[C@H](CC(=O)O)NC(=O)CNC(=O)[C@H](CCCNC(=N)N)NC(=O)[C@H](CC(C)C)NC(=O)[C@H](CC(N)=O)NC(=O)[C@@H]1CCCN1C(=O)[C@@H](NC(=O)[C@H](C)NC(=O)[C@@H](N)CC(N)=O)C(C)C)C(=O)N[C@@H](CCC(N)=O)C(=O)N[C@H](C(=O)N[C@@H](CC(C)C)C(=O)N[C@@H](C)C(=O)N[C@@H](CCC(N)=O)C(=O)N[C@@H](CCCCN)C(=O)N[C@H](C(=O)N[C@@H](C)C(=O)N[C@@H](CCCNC(=N)N)C(=O)N[C@H](C(=O)O)[C@@H](C)O)C(C)C)C(C)C [Compound 13, H2N-^1NAVPNLRGDLQVLAQKVAR^20T-OH]
peptide remaining in human plasma [1]: > 75% | peptide remaining intact in mouse serum [2]: 50% | peptide remaining intact in rat serum (24 h): almost completely degraded | peptide remaining intact in rat serum (48 h): undetected
